Test results reported in PMC9369231, “Bile Acid–Drug Interaction via Organic Anion-Transporting Polypeptide 4C1 Is a Potential Mechanism of Altered Pharmacokinetics of Renally Excreted Drugs” (International Journal of Molecular Sciences, 2022).

Columns and labels:
Type in all cases: cell-based
[1] = target: T1, OATP4C1 (organic anion-transporting polypeptide 4C1) (Homo sapiens, UniProt Q6ZQN7); test: inhibition of T3 uptake in OATP4C1/MDCKII cells, LC/MS/MS, mock subtracted; conditions: MDCK-II
T1 construct: gene SLCO4C1; stably expressed in MDCKII cells (G418), butyrate-induced
T1 sequence (Q6ZQN7 1-724): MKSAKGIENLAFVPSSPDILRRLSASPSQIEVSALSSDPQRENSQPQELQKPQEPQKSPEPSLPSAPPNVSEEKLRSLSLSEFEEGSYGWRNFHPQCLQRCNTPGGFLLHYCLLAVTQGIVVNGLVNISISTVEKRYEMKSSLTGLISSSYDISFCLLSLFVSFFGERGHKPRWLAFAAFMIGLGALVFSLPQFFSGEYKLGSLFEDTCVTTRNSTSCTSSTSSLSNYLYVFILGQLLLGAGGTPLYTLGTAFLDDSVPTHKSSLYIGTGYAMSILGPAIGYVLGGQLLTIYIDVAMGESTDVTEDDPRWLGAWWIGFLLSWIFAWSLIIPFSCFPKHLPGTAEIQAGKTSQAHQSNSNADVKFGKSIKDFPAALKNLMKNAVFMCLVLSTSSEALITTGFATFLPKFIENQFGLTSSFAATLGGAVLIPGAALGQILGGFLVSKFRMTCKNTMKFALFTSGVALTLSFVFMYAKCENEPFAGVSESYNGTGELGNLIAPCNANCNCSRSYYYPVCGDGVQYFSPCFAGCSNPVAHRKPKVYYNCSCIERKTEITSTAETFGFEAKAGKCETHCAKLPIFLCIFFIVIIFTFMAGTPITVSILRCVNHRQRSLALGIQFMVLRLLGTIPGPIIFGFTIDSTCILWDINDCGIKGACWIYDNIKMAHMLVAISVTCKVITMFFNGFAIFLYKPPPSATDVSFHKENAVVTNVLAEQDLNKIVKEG

[2] = target: T1, OATP4C1 (organic anion-transporting polypeptide 4C1); test: inhibition of T3 uptake in OATP4C1/MDCKII cells; Ki calculated from IC50 as IC50/([…]+[S]/Km)
[3] = target: T1, OATP4C1 (organic anion-transporting polypeptide 4C1); test: inhibition of T3 uptake in OATP4C1/MDCKII cells, LC/MS/MS, mock subtracted
Description: inhibition of T3 uptake in OATP4C1/MDCKII cells, LC/MS/MS, mock subtracted on OATP4C1 (organic anion-transporting polypeptide 4C1)

Row | SMILES | inhibition at 50 µM [1] | Ki [2] | IC50 [3]
1 | C[C@H](CCC(=O)NCCS(=O)(=O)O)[C@H]1CC[C@H]2[C@@H]3CC[C@@H]4C[C@H](OS(=O)(=O)O)CC[C@]4(C)[C@H]3C[C@H](O)[C@]12C [TDCA-3S] | 49.1% |  | 
2 | C[C@H](CCC(=O)O)[C@H]1CC[C@H]2[C@@H]3CC[C@@H]4C[C@H](O)CC[C@]4(C)[C@H]3CC[C@]12C [LCA] |  | 5.23 ± 1.03 µM | 6.12 ± 1.21 µM
3 | C[C@H](CCC(=O)NCC(=O)O)[C@H]1CC[C@H]2[C@@H]3CC[C@@H]4C[C@H](O)CC[C@]4(C)[C@H]3CC[C@]12C [GLCA] |  | 8.46 ± 0.406 µM | 9.9 ± 0.475 µM
4 | C[C@H](CCC(=O)NCCS(=O)(=O)O)[C@H]1CC[C@H]2[C@@H]3CC[C@@H]4C[C@H](O)CC[C@]4(C)[C@H]3CC[C@]12C [TLCA] |  | 10.5 ± 0.762 µM | 12.3 ± 0.891 µM
